Test results from patent US12441733B2, “Substituted 2,4-dioxotetrahydropyrimidines as intermediates in the synthesis of bruton's tyrosine kinase inhibitors” (Novartis AG, priority 2018, dated 2025).

Tests used:
Assay type in all cases: cell-based
BTK-GFP = target: T1, BTK-GFP (Homo sapiens, UniProt Q06187+Q96SW2); experiment: BTK-GFP protein abundance flow cytometry assay in HEK293A cells; settings: HEK293A BTK-GFP-iresRFP cells, 24 h; for DC50: GFP signal by flow cytometry, concentration at which 50% maximal degradation was observed; for BTK deg Amax: % protein remaining at the concentration at which maximum degradation is seen
T1 construct: expressed in transfected cells; host or cells: HEK293A (Invitrogen R70507), lentiviral transduction with pLenti6-BTK-GFP-Ires-RFP, blasticidin selection
Procedure: (§1) Compounds of the invention were tested in the following cellular assays. The terms in Table 2 are defined as follows: DC50 refers to the concentration at which 50% maximal degradation was observed; deg Amax is the extent of degradation and the value refers to the % protein remaining at the concentration at which maximum degradation is seen; ProI GI50 refers to the proliferation data and defines the concentration at which 50% growth inhibition was observed compared to the vehicle treated control at the end of the incubation time. TMD8 cells are BTK dependent and OCI-LY3 cells are BTK independent.
BTK-GFP and IKZF3-GFP protein abundance flow cytometry assay in HEK293A cells:
Degradation of BTK or IKZF3 was measured in HEK293A cells (Invitrogen R70507) expressing either BTK-GFP and RFP or IKZF3-GFP and RFP from a stably integrated bicistronic BTK-GFP-iresRFP or IKZF3-GFP-iresRFP construct, respectively. Reduction of the GFP signal measured by flow cytometry served as readout for BTK or IKZF3 degradation after degrader treatment.
i) Cloning of the pLenti6-BTK-GFP-1Res-RFP and IKZF3-GFP-Ires-RFP Sensor Vectors
The bicistronic BTK-GFP-iresRFP construct is based on a pLenti6-DEST vector backbone where GFP was introduced into the unique Xho1 site downstream of the destination cassette (DEST) and RFP was cloned behind an internal ribosomal entry site (Ires).
In detail, the sensor construct was engineered by replacing NanoLuciferase (NLuc) by GFP and FireFly luciferase (FF) by RFP from pLenti6-DEST-NLuc-Ires-FF.
The pLenti6-DEST-NLuc-Ires-FF sensor construct was cloned by replacing eGFP from pLenti6-DEST-ires-eGFP with a synthesized stuffer element (encoding Ires-FF with FF flanked by two Nhe1 restriction sites) using blunt end cloning replacing Ires-eGFP between the two PmII. To enable C-terminal tagging with NanoLuciferase (NLuc), NLuc was amplified from pNL1.1 (Promega #N1001) using linker primers with Xho1 sites for ligating into linearized pLenti6-DEST-Ires-FF using Xho1 digest resulting in the construct pLenti6-DEST-NLuc-Ires-FF.
The pLenti6-DEST-NLuc-Ires-FF served as base vector for cloning pLenti6-DEST-GFP-Ires-RFP using Gibson assembly to replace FF with RFP and NLuc with GFP. In a first round FF was replaced by RFP by amplifying RFP from a template using the following Gibson assembly linker primers (Gibson-Nhe1 RFPfw, […]gctagc[…] (SEQ ID NO: 1); Gibson-Nhe1 RFP-Stoprev, […]ctagc[…] (SEQ ID NO: 2)) to clone into pLenti6-DEST-NLuc-Ires-FF digested with Nhe1 and gel-purified to remove the FF fragment. The resulting pLenti6-DEST-NLuc-Ires-RFP vector served as the template to replace NLuc with GFP by amplifying GFP from a template using following Gibson assembly linker primers (Gibson-Xho1 GFPfw, […]c[…] (SEQ ID NO: 3); Gibson-Xho1 GFP-Stoprev, […] (SEQ ID NO: 4)) to clone into pLenti6-DEST-NLuc-Ires-RFP digested with Xho1 and gel-purified to remove the NLuc fragment. All Gibson assembly reactions were performed with Gibson assembly Master Mix (New England Biolabs NEB E261 IL) according to manufacturer's manual, resulting in the destination vector pLenti6-DEST-GFP-Ires-RFP to allow Gateway cloning. To enable gateway cloning and C-terminal GFP tagging of BTK, the BTK open reading frame (ORF) was first shuttled from a pcDNA-DEST40-BTK vector (Invitrogen library ID INV_20090504v1) into pDONR221 (Invitrogen 12536-017) vector using a gateway BP reaction according to the manufacturer's manual (Invitrogen 11789-013) resulting in the novel construct pENTR221-BTK. For C-terminal tagging the STOP codon was mutated to a leucine performing a mutagenesis reaction with the following primers (pENTR221-BTK Quikchange STOP-Leu fw, gtcatggatgaagaatccTTGaacccagctttcttgtac; pENTR221-BTK Quikchange STOP-Leu REVC, gtacaagaaagctgggttCAAggattcttcatccatgac) using the QuikChange Lightning mutagenesis kit (Agilent Technologies #210518) according to the manufacturer's manual, resulting in pENTR221-BTK (STOP-Leu). […]

TMD8 cells = experiment: Resazurin cell viability (proliferation) assay in TMD8 DLBCL cells; settings: Homo sapiens, TMD8 cells (BTK dependent), 72 h, 50% growth inhibition vs vehicle, read-out: TMD8 Prol GI50
Procedure: as §1
(§2) Cell Viability Assay in DLBCL (Diffuse Large B-Cell Lymphoma) Cells:
(§3) The effect of the BTK compounds on cell proliferation was measured by a Resazurin (Sigma, #R7017) based cell viability assay. TMD8 (BTK compound sensitive) and OCI-LY3 (BTK compound insensitive) cells were incubated for 72 h at 37° C. and 5% CO2 with the corresponding compound, Resazurin is a non-toxic, cell-permeable substrate that is virtually non-fluorescent. Upon entering living cells, Resazurin (Sigma, #R7017) is reduced to highly fluorescent Resorufin. The metabolic activity was assessed by measuring the fluorescence signal (ex. 530 nm; em. 600 nm).
(§4) TMD8 and OCI-Ly3 cells were seeded at day 0 in triplicates at a cell density of 1×10^4 cells per 150 μl/well in a 96-well plate (Costar #3904). Additional plates were prepared, in order to assess the basal metabolic activity of both cell lines at the beginning of the experiment. For these reference plates, Resazurin (Sigma, #R7017) was added to a final concentration of 13 μg/ml 3 h post seeding and was incubated for 2 h at 37° C. and 5% CO2. Following incubation, the fluorescent signal intensity of the 96-well plates was measured on a Mithras LB940 multimode plate reader at 530/600 nm (Berthold Technologies, Germanyl).
(§5) In parallel, 3 h post-seeding, test-plates were treated with compound at various concentrations, or with vehicle (DMSO) alone for 3 days. The compound addition to the plates was performed by using a HP D300 digital dispenser (TECAN, Switzerland). The compounds were tested in triplicate, 8-point serial dilution (1:4), with a start concentration of 10 μM for OCI-LY3 and 1 μM for the TMD8 cells, respectively. To assess the relative proliferation of the cells, Resazurin was added to each well directly to the medium to a final concentration of 13 μg/ml. The plates were incubated for 2 h at 37° C. and 5% CO2 to result in a 72 h endpoint. Following incubation, the fluorescent signal intensity of the 96-well plates were measured on a Mithras LB940 multimode plate reader at 530/600 nm (Berthold Technologies, Germanyl). The formation of Resorufin dye directly correlates with the number of metabolically active cells. For each triplicate treatment the mean and standard deviation were calculated and analyzed via curve fitting software to determine the respective compound concentration resulting in 50% growth inhibition (GI50) values. For each compound GI50 values were typically determined from at least 2 entirely independent experiments.
TMD8 cells were acquired through a license agreement with Tokyo Medical and Dental University, Japan. Cells are cultivated in MEM Alpha (BioConcept, #1-23F01-1, lot. LB04262P) supplemented with 10% FCS (HyClone, GE #SH30066.03, lot AB3217603), 2 mM L-Glutamine (BioConcept, #5-10K50-H, lot. LA03467P), 1% Pen/Strep (BioConcept, #4-01F00-H, lot. LB04235P).

OCI-LY3 cells = experiment: Resazurin cell viability (proliferation) assay in OCI-LY3 DLBCL cells; settings: Homo sapiens, OCI-LY3 cells (BTK independent), 72 h, 50% growth inhibition vs vehicle, read-out: OCI-LY3 Prol GI50
Procedure: as §1, §2, §3, §4, §5
OCI-LY3 cells were acquired through a license agreement with University Health Network, Toronto, Canada. Cells are cultivated in RPM11640 media (Gibco, #61870-010, lot. 1894759), supplemented with 10% FCS (HyClone, GE #SH30066.03, lot AB217603), 2 mM L-Glutamine (BioConcept, #5-10K50-H, lot. LA03467P), 1 mM Sodium Pyruvate (BioConcept, #5-60F00-H, lot. LB10510P), 10 mM HEPES (Gibco, #15630-056, lot. 1854074), 1% Pen/Strep (BioConcept, #4-01F00-H, lot. LB04235P).

T1 sequence (Q06187 whole entry): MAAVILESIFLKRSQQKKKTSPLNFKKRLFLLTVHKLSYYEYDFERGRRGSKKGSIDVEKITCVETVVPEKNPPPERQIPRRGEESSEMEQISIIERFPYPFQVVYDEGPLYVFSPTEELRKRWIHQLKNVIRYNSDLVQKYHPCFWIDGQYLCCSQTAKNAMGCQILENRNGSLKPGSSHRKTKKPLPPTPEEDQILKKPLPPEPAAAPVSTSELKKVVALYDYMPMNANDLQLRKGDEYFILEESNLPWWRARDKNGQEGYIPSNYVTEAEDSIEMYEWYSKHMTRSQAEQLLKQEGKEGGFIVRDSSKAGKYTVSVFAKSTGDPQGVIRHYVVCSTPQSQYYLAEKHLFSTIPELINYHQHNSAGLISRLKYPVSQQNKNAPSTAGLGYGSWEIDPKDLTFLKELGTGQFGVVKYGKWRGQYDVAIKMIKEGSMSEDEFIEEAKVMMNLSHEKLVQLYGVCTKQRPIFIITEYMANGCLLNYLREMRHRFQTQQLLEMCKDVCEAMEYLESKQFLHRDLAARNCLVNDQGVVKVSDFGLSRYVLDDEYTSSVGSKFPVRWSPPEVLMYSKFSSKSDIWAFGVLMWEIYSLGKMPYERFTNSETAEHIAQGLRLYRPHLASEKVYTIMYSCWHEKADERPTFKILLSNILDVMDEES
T1 sequence (Q96SW2 whole entry): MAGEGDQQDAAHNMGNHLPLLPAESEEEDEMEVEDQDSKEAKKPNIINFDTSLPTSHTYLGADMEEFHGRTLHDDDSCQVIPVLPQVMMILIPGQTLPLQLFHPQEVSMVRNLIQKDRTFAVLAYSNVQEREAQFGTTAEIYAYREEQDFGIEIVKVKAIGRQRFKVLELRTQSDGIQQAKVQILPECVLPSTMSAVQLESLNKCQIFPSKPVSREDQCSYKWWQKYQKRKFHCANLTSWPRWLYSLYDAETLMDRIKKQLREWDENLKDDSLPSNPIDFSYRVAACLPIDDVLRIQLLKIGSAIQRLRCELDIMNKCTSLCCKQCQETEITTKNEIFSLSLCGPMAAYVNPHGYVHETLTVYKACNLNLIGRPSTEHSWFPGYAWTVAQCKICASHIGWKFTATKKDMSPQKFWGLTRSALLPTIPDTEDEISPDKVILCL
T1 sequence (Q16531 whole entry partner): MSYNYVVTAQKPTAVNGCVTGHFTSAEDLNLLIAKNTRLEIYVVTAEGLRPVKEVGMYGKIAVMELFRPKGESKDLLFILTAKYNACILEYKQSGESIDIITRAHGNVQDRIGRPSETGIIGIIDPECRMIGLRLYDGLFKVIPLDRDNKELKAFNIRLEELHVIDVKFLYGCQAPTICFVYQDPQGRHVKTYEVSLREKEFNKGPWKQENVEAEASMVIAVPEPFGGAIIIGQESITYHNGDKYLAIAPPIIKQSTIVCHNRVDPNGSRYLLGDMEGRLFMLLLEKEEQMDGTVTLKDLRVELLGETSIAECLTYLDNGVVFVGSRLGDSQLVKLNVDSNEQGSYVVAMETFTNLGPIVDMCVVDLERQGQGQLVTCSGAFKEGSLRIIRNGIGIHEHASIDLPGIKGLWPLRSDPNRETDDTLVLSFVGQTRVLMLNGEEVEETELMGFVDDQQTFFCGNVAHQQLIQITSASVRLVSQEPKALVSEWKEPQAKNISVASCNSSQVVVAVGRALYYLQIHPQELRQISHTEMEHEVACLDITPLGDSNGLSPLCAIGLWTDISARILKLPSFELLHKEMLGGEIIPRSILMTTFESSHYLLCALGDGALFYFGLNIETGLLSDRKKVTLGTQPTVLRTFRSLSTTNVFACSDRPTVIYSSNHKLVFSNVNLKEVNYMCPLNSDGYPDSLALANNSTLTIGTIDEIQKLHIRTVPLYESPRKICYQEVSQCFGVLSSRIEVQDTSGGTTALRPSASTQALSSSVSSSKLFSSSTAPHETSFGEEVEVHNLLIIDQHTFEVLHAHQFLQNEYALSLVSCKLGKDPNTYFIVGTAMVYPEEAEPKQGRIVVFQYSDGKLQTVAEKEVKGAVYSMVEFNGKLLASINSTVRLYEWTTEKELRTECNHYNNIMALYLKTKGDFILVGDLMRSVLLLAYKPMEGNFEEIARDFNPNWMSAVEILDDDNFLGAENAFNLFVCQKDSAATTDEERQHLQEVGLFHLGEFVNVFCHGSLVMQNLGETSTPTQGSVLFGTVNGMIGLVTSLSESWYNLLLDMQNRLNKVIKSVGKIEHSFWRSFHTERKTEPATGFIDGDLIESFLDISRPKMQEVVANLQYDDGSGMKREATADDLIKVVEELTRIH

DC50 (BTK-GFP) [µM] | BTK deg Amax (BTK-GFP) [%] | GI50 (OCI-LY3 cells) [µM] | Structure (SMILES) | GI50 (TMD8 cells) [µM]
0.025 | 4.3 | 4.76 | COc1ccc(C(=O)NCCCCN2CCN(Cc3ccc(-c4cc5c(-c6cc(F)cc(NC(=O)c7ccc(C(C)(C)O)cc7F)c6C)ncnc5[nH]4)cc3)CC2)cc1N1CCC(=O)NC1=O [Compound 26, N-(3-(6-(4-((4-(4-(3-(2,4-Dioxotetrahydropyrimidin-1(2H)-yl)-4-methoxybenzamido)butyl)piperazin-1-yl)methyl)phenyl)-7H-pyrrolo[2,3-d]pyrimidin-4-yl)-5-fluoro-2-methylphenyl)-2-fluoro-4-(2-hydroxypropan-2-yl)benzamide] | 0.00192
0.0018 | 3.7 | 6.83 | COc1ccc(C(=O)N2CCN(CCN3CCC(OCc4ccc(-c5cc6c(-c7cc(F)cc(NC(=O)c8ccc(C(C)(C)O)cc8F)c7C)ncnc6[nH]5)cc4)CC3)CC2)cc1N1CCC(=O)NC1=O [Compound 21, N-(3-(6-(4-(((1-(2-(4-(3-(2,4-dioxotetrahydropyrimidin-1(2H)-yl)-4-methoxybenzoyl)piperazin-1-yl)ethyl)piperidin-4-yl)oxyl)methyl)phenyl)-7H-pyrrolo[2,3-d]pyrimidin-4-yl)-5-fluoro-2-methylphenyl)-2-fluoro-4-(2-hydroxypropan-2-yl)benzamide] | 0.0006
0.0937 | 12.1 | 6.12 | Cc1cc(F)c(C(=O)N(C)CCCCCNCc2ccc(-c3cc4c(-c5cc(F)cc(NC(=O)c6ccc(C(C)(C)O)cc6F)c5C)ncnc4[nH]3)cc2)cc1N1CCC(=O)NC1=O [Compound 28, 5-(2,4-Dioxotetrahydropyrimidin-1(2H)-yl)-2-fluoro-N-(5-((4-(4-(5-fluoro-3-(2-fluoro-4-(2-hydroxypropan-2-yl)benzamido)-2-methylphenyl)-7H-pyrrolo[2,3-d]pyrimidin-6-yl)benzyl)amino)pentyl)-N,4-dimethylbenzamide] | 0.00716
> 0.123 | 53.8 | 7.94 | COc1ccc(C(=O)N2CCC3(CCN(Cc4ccc(-c5cc6c(-c7cc(F)cc(NC(=O)c8ccc(C(C)(C)O)cc8F)c7C)ncnc6[nH]5)cc4)CC3)C2)cc1N1CCC(=O)NC1=O [Compound 55, N-(3-(6-(4-((2-(3-(2,4-dioxotetrahydropyrimidin-1(2H)-yl)-4-methoxybenzoyl)-2,8-diazaspiro[4.5]decan-8-yl)methyl)phenyl)-7H-pyrrolo[2,3-d]pyrimidin-4-yl)-5-fluoro-2-methylphenyl)-2-fluoro-4-(2-hydroxypropan-2-yl)benzamide] | 0.00701
0.0108 | 3.4 | 4.32 | COc1ccc(C(=O)N2CCC(OC(CO)CN3CCC(Oc4ccc(-c5cc6c(-c7cc(F)cc(NC(=O)c8ccc(C(C)(C)O)cc8F)c7C)ncnc6[nH]5)cc4)CC3)CC2)cc1N1CCC(=O)NC1=O (racemic) [Compound 18, rac-N-(3-(6-(4-((1-(2-((1-(3-(2,4-Dioxotetrahydropyrimidin-1(2H)-yl)-4-methoxybenzoyl)piperidin-4-yl)oxyl)-3-hydroxypropyl)piperidin-4-yl)oxyl)phenyl)-7H-pyrrolo[2,3-d]pyrimidin-4-yl)-5-fluoro-2-methylphenyl)-2-fluoro-4-(2-hydroxypropan-2-yl)benzamide] | 0.00158
0.0007 | 2.3 | 5.94 | Cc1ccc(C(=O)N2CCC(OC3CCN(CCc4ccc(-c5cc6c(-c7cc(F)cc(NC(=O)c8ccc(C(C)(C)O)cc8F)c7C)ncnc6[nH]5)cc4)CC3)CC2)cc1N1CCC(=O)NC1=O [Compound 10, N-(3-(6-(4-(2-(4-((1-(3-(2,4-Dioxotetrahydropyrimidin-1(2H)-yl)-4-methylbenzoyl)piperidin-4-yl)oxyl)piperidin-1-yl)ethyl)phenyl)-7H-pyrrolo[2,3-d]pyrimidin-4-yl)-5-fluoro-2-methylphenyl)-2-fluoro-4-(2-hydroxypropan-2-yl)benzamide] | 0.00036
